Laboratory results published in patent publication US20170191038A1, “TGFß SIGNALING INDEPENDENT NAÏVE INDUCED PLURIPOTENT STEM CELLS, METHODS OF MAKING AND USE” (HONG GUAN Ltd., priority 2014, published 2017).
Counter-ions that a name gives are not always drawn.

Legend:
Assay type in all cases: cell-based, rhesus monkey (Macaca mulatta)
[1] = test system: Rhesus monkey primed iPSCs; experiment: Conversion of rhesus monkey primed iPSCs to naive iPSCs (conversion condition optimization, TRA-1-81/TBX3 double-positive dome-shaped colonies); settings: for effect on pluripotency / dome-shaped colony formation during naive conversion: primed iPSCs under 2i/LIF-based conditions, Y27632 10 μM, GÖ6983 5 μM
Method: Rhesus monkey primed iPSCs were dissociated into single cells by accutase and reseeded on feeder cells. The converting medium with 4 ng/ml bFGF (R&D Systems), 10 ng/ml human LIF (Millipore), CHIR99021 (3 μM; Stemgent) and PD0325901 (0.5 μM; Stemgent) was changed daily. At approximately day 7 to day 10, dome-shaped colonies were selected and transferred onto fresh feeder cells. Traditional 2i/LIF conditions—10 ng/ml human LIF (Millipore), CHIR99021 (3 μM; Stemgent) and PD0325901 (0.5 μM; Stemgent) were also tested and served as negative control. • (c) Conversion Condition Optimization for Rhesus Monkey Naïve iPSCs
Rhesus monkey primed iPSCs were dissociated into single cells by accutase and reseeded on feeder cells. The basal culture medium with 4 ng/ml bFGF (R&D Systems), 10 ng/ml human LIF (Millipore), CHIR99021 (3 μM; Stemgent) and PD0325901 (0.5 μM; Stemgent) was changed daily. The small molecules tested for culture condition optimization were SB203580 (10 μM; Tocris), SP600125 (10 μM; Tocris), Y27632 (10 μM; Tocris) and GÖ6983 (5 μM; Tocris). After treatment for 8 days, cells were fixed and immunostained for TRA-1-81.
(§1) To detect ALP activity the cells were washed with phosphate-buffered saline three times and stained with BCIP/NBT (Promega) for 15 min. For immunofluorescence, the primary antibodies included those against SSEA-1 (1:50, Chemicon), SSEA-4 (1:20, Santa Cruz Biotechnology), TRA-1-60 (1:50, Santa Cruz Biotechnology), TRA-1-81 (1:50, Santa Cruz Biotechnology), NANOG (1:100, R&D Systems), TBX3 (1:200, Abcam), H3K27me3 (1:200, Millipore), GATA4 (1:200, Santa Cruz Biotechnology), OCT4 (1:200, Abcam) and SOX2 (1:200, Santa Cruz Biotechnology). The secondary antibodies were rhodamine-labeled donkey anti-mouse IgG (1:100, Santa Cruz Biotechnology), rhodamine-labeled donkey anti-rabbit IgG (1:100, Santa Cruz Biotechnology), rhodamine-labeled goat anti-mouse IgM (1:100, Santa Cruz Biotechnology) and rhodamine-labeled donkey anti-goat IgG (1:100, Santa Cruz Biotechnology). DAPI (Roche Applied Science) was used for nuclear staining.

[2] = test system: Rhesus monkey primed iPSCs; experiment: Signaling analysis of rhesus monkey primed iPSCs (TRA-1-81-positive colonies); settings: hESCs medium; 5 days; Stattic 1 μM, SB431542 10 μM, SU5402 2 μM, TGF-β1 2 ng/ml
Method: (§2) Rhesus monkey primed iPSCs were maintained as described (Liu H et al., 2008). […] The tested signaling modulators were SU5402 (2 μM; Tocris), SB431542 (10 μM; Tocris), Stattic (1 μM; Tocris) and TGF-β1 (2 ng/ml, Peprotech). After treatment for 5 days, cells were fixed and immunostained for TRA-1-81.
as §1

[3] = test system: Rhesus monkey naïve iPSCs; experiment: Signaling analysis of rhesus monkey naïve iPSCs (TRA-1-81-positive dome-shaped colonies); settings: optimized conversion conditions; 5 days; Stattic 1 μM, SB431542 10 μM, SU5402 2 μM, TGF-β1 2 ng/ml
Method: as §2, §1

Row | Compound | effect on pluripotency / dome-shaped colony formation during naive conversion [1] | conversion efficiency (TRA-1-81/TBX3 double-positive and dome-shaped colonies of total colonies) ([1]; bFGF (4 ng/ml) added to 2i/LIF conditions, primed iPSCs) | self-renewal / pluripotency maintenance of primed iPSCs (TRA-1-81-positive colonies, words) [2] | self-renewal / pluripotency maintenance of naive iPSCs (TRA-1-81-positive dome-shaped colonies, words) [3]
1 | C[C@@H](N)[C@H]1CC[C@H](C(=O)Nc2ccncc2)CC1 [Y27632, (+)-(R)-trans-4-(1-aminoethyl)-N-(4-pyridyl)cyclohexanecarboxamide+++dihydrochloride] | induced pronounced differentiation and reduced TRA-1-81 expression in the colonies |  |  | 
2 | COc1ccc2c(c1)c(C1=C(c3c[nH]c4ccccc34)C(=O)NC1=O)cn2CCCN(C)C [GO{umlaut over ( )} 6983, 3-[1-[3-(Dimethylamino)propyl]-5-methoxy-1H-indol-3-yl]-4-(1H-indol-3-yl)-1H-pyrrole-2,5-dione] | induced pronounced differentiation and reduced TRA-1-81 expression in the colonies |  |  | 
3 | bFGF: recombinant basic fibroblast growth factor, protein factor | Dome-shaped colonies morphologically similar to mouse ESCs appeared | 8%-10% |  | 
4 | O=[N+]([O-])c1ccc2c(c1)S(=O)(=O)C=C2 [JAK/STAT3 inhibitor] |  |  | maintained their pluripotent properties | readily differentiated with greatly reduced expression of TRA-1-81
5 | TGF-β: transforming growth factor-β1 (2 ng/ml, Peprotech) |  |  |  | devastating to the self-renewal of naïve iPSCs
6 | NC(=O)c1ccc(-c2nc(-c3ccccn3)c(-c3ccc4c(c3)OCO4)[nH]2)cc1 [SB431542] |  |  | devastating to primed iPSCs self-renewal | no effect on rhesus monkey naive iPSCs
7 | O=C(NOC[C@H](O)CO)c1ccc(F)c(F)c1Nc1ccc(I)cc1F [PD0325901, N-[(2R)-2,3-Dihydroxypropoxy]-3,4-difluoro-2-[(2-fluoro-4-iodophenyl)amino]-benzamide] | essential for conversion and maintenance of TBX3/TRA-1-81 double-positive dome-shaped colonies |  |  | 
8 | Cc1c[nH]c(/C=C2\C(=O)Nc3ccccc32)c1CCC(=O)O [SU5402] |  |  | few TRA-1-81-positive colonies formed | few TRA-1-81-positive colonies formed
